Experimental data: patent publication US6863833B1, “Microfabricated apertures for supporting bilayer lipid membranes” (The Board of Trustees of the Leland Stanford Junior …, priority 2001, dated 2005)

How the values were obtained:
[1] = target: staphylococcal α-hemolysin (αHL) channels (Staphylococcus aureus, UniProt P09616); format: biochemical
[2] = Gramicidin D conductance change in lipid bilayer formed across nanoaperture; format: biochemical; conditions: 5 to 20 μl of 2 mg/ml gD in ethanol added to each bath; within minutes; capacitance remained constant
Excerpt: Lipid bilayers were formed by the method of Montal and Mueller (1972). In practicing the Langmuir-Blodgett technique, one raises two lipid monolayers across an aperture, allowing the lipids to align their hydrophobic tail portions across the aperture so as to form a lipid bilayer. Because of the hydrophobic nature of the lipid tails, in order to form stable bilayers the surface of a BSP must also be hydrophobic. If the substrate is hydrophobic, the lipids can smoothly transition from coating the substrate to spanning the aperture. To reverse the wetting properties of the naturally hydrophilic silicon nitride, the silicon nitride was coated with an alkylsilane (octyltrichlorosilane). Application of this coating was quite simple and very effective. It was not found to be possible to form a bilayer with untreated devices. Use of longer carbon chain silanes or alternative-materials to make the surface even more hydrophobic would further increase bilayer stability.
For smaller apertures, it was more difficult to observe the capacitance change the background. In this case, membrane-bound proteins that affect the electrical properties of the bilayer, such as carriers and ion channels, offered the best proof of the formation of a bilayer. The ion channel peptide Gramicidin D (gD), was chosen for ease of use and large conductance change. […]

Sequence of staphylococcal α-hemolysin (αHL) channels (P09616 27-319 limits assumed): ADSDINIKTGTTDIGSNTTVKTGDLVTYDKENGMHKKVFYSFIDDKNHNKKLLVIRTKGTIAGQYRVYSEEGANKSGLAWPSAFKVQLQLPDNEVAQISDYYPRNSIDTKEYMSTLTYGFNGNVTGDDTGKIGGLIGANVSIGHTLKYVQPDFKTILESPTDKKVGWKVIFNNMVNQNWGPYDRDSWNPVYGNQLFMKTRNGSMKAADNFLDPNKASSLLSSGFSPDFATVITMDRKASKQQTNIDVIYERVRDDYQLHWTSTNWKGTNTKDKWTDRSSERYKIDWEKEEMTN

Compound	current reduction when a channel becomes blocked [1]	conductance of the bilayer [2]
OC[C@H]1O[C@@H]2O[C@H]3[C@H](O)[C@@H](O)[C@@H](O[C@H]4[C@H](O)[C@@H](O)[C@@H](O[C@H]5[C@H](O)[C@@H](O)[C@@H](O[C@H]6[C@H](O)[C@@H](O)[C@@H](O[C@H]7[C@H](O)[C@@H](O)[C@@H](O[C@H]8[C@H](O)[C@@H](O)[C@@H](O[C@H]1[C@H](O)[C@H]2O)O[C@@H]8CO)O[C@@H]7CO)O[C@@H]6CO)O[C@@H]5CO)O[C@@H]4CO)O[C@@H]3CO [βCD, β-cyclodextrin]	70±4%	
Gramicidin D		dramatically increased
